In patent US20110162437A1, “Biomarker for Mitochondrial Toxicity Associated with Phospholipidosis” (priority 2006, published 2011):
Values joined by “and” are separate entries in the source; they are usually repeats but may differ in a detail not shown here. Equal entries are not always repeated. “Also recorded” adds a separate entry of the source.

How the values were obtained:
Male Wistar rats = test: PAG measurement by 1H NMR in urine after single oral dose, ratio versus time-matched controls; type: in vivo, rat; details: for PAG: urine, individual animals
Experimental: (§1) All animals received (human) care as specified by Swiss law and in accordance with the “Guide for the care and use of laboratory animals” published by the NIH. Male Wistar rats (5 animals/dose-group) were purchased from RCC (Füllingsdorf, Switzerland) and housed individually. Treated animals were dosed orally by gavage with several doses of test compounds (Table 1). Control animals received the same volume of vehicle as placebo. Necropsy was performed 48 (subgroup A) or 168 hours (subgroup B) after a single administration (=Day 1) and urine samples were collected in metabolism cages at 0 to 4° C. (automatically refrigerated by a Tecniplast sampling/cooling unit (RACK B940, Tecniplast, USA)) at the intervals given in the sampling schedule in Table 2 into labelled sample tubes containing 1 ml of an aqueous Na-azide (1%) solution. Before aliquoting, urine volumes were determined.
Urine samples were taken on day -7,-2,-1, 1, 2, 3, 4, 5, 6 and 7, whereby Day 1 was the Day of dosing.
Immediately after reaching the end of the sampling period, the volume was determined and the samples were centrifuged at 3000 u/min (500 g) for 10 minutes.
Aliquot: Approximately 2 ml was transferred in 1.8 ml cryvials, round bottom, freestanding, with screw caps and septum for NMR-spectroscopic examinations (Bruker Analytik GmbH, Rheinstetten, Germany, Bruker part No. 85372). The vials were stored at −80° C.
Urine samples were prepared and measured on a Bruker 500 MHz NMR instrument according to the COMET 1H-NMR protocol (Keun, H. C et al., (2002) Physiological variation and analytical reproducibility in metabonomic urinalysis. Chem. Res. Tox. 15, 1380-1386) and as described above. In total 467 urine samples were analyzed. After measurement, all data were processed by XWINMR 3.5.6 (Bruker Biospin AG, Fällanden). Representative spectra are depicted in FIG. 2. Phase correction and baseline correction were performed with NMRPROC 0.3 (T. Ebbels, H. Keun; Imperial College). Spectral data were binned using AMIX 2.6 (Bruker Biospin AG, Fällanden) following the COMET Data Processing & Pattern Recognition protocol (Keun, H. C., et al., (2002) Physiological variation and analytical reproducibility in metabonomic urinalysis. Chem. Res. Tox. 15, 1380-1386). QC check procedures (Dieterle F., Ross A., Schlotterbeck G., Senn H. (2006) Probabilistic Quotient Normalization as Robust Method to Account for Dilution of Complex Biological Mixtures. Application in 1H NMR Metabonomics. Anal. Chem. 78, 4281-4290) were applied on binned data to detect outliers. In total 7 outliers were detected and removed from further analysis. All data were mean-centered and normalized using the probabilistic quotient normalization (Dieterle F., Ross A., Schlotterbeck G., Senn H. (2006) Probabilistic Quotient Normalization as Robust Method to Account for Dilution of Complex Biological Mixtures. Application in 1H NMR Metabonomics. Anal. Chem. 78, 4281-4290.). All binned data were annotated and transferred to the ANT (ANT: Affymetrix NMR Toxicology Data System) database.
The exact PAG quantification was performed according to following procedure: • Baseline subtraction of spectra • Integration of PAG peaks ((=7.47 ppm, (=7.39 ppm, (=3.79 ppm, and (=3.7 ppm respectively) and Citrate region ((=2.66-2.74 ppm and 2.50-2.58 ppm). • Quotient normalization (Dieterle F., Ross A., Schlotterbeck G., Senn H. (2006) Probabilistic Quotient Normalization as Robust Method to Account for Dilution of Complex Biological Mixtures. Application in 1H NMR Metabonomics. Anal. Chem. 78, 4281-4290.) • Divide each of the PAG bins by its average (all spectra) to correct for different relaxation times and number of protons • Calculate median out of the PAG bins • Calculate ratio versus time-matched controls

basic pKa value = type: physicochemical
[1] = potential to induce phospholipidosis judged from amphiphilicity and basic pKa; details: from reduced amphiphilicity and basic pKa
From the text: The structural difference between both molecules can be mainly characterized by the exchange of the piperazine against a morpholine moiety in compound 2.

lymphocytes = test: Electron microscopic examination of buffy coat lymphocytes for lamellar bodies (determination of phospholipidosis); type: in vivo, rat; details: for lymphocytes %, pos. / lymphocytes positive (with lamellar bodies): individual rats, 1000 mg/kg/day
Experimental: as §1
Blood samples (as much as possible) were withdrawn from all animals at necropsy at about 48 hours after dosing (subgroup A) and about 168 hours after dosing (subgroup B)
The samples were collected from the abdominal aorta or by cardiac puncture under terminal anaesthesia (CO2). A total of at least 2 ml blood was required to gain buffy coat (buffy coat=leukocyte band) samples.
After fixation in 2.5% glutaraldehyde, the buffy coat samples from all animals were embedded in Epon. […] All thin sections were examined ultrastructurally. If possible, 200 lymphocytes per sample were examined for lamellar bodies. The results per sample include the total number of lymphocytes examined, the total number of positive lymphocytes (i.e. with lamellar bodies), the percentage of positive lymphocytes and a grading of severity of phospholipidosis (criteria see table 4)

[2] = necropsy 48 hours after application
[3] = necropsy 168 hours after application

- dose dependant change of PAG levels in urine (Male Wistar rats; rat, single oral dose, both dose groups, normalized to time matched controls): No significant dose dependant change
- pKa (basic pKa value): 4.07
SMILES: CN(C(=O)C(C)(C)c1cc(C(F)(F)F)cc(C(F)(F)F)c1)c1cnc(N2CCOCC2)cc1-c1ccccc1Cl [Compound 2, 2-(3,5-Bis-trifluoromethyl-phenyl)-N-[4-(2-chloro-phenyl)-6-morpholin-4-yl-pyridin-3-yl]-N-methyl-isobutyramide]
- PAG (Male Wistar rats; High_Dose group, Time 0 (within 8 hours before treatment)): 0.3191 and 0.4082 and 0.1757 and 0.4688 and 0.3904 and 0.3807 and 0.4568 and 0.5015 and 0.3805 and 0.4405
- PAG (Male Wistar rats; High_Dose group, Time 8 (within 8 hours after treatment)): 0.6552 and 0.2654 and 0.3244 and 0.3661 and 0.5090 and 0.8253 and 0.6223 and 0.6794 and 0.5865 and 0.5553
- PAG (Male Wistar rats; High_Dose group, Time 24 (within 8 to 24 hours after treatment)): 0.4048 and 0.3363 and 0.1408 and 0.3750 and 0.4284 and 0.6538 and 0.4408 and 0.2588 and 0.4111 and 0.3592
- PAG (Male Wistar rats; High_Dose group, Time −16 (1 day before treatment)): 0.6280 and 0.3499 and 0.4531 and 0.5078 and 0.6008 and 0.3961 and 0.6035 and 0.5396 and 0.6968
- PAG (Male Wistar rats; High_Dose group, Time −40 (2 days before treatment)): 0.5320 and 0.2568 and 0.4805 and 0.4717 and 0.4514 and 0.4760 and 0.6419 and 0.7515 and 0.6794 and 0.7696
- PAG (Male Wistar rats; Low_Dose group, Time 0 (within 8 hours before treatment)): 0.6632 and 0.5179 and 0.2795 and 0.6376 and 0.3104 and 0.3524 and 0.4991 and 0.5273 and 0.2959 and 0.3191
- PAG (Male Wistar rats; Low_Dose group, Time 8 (within 8 hours after treatment)): 0.8897 and 0.6310 and 0.3915 and 1.2919 and 0.3580 and 0.9744 and 0.3039 and 0.7208 and 0.6353 and 0.4304
- PAG (Male Wistar rats; Low_Dose group, Time 24 (within 8 to 24 hours after treatment)): 0.6934 and 0.3762 and 0.4835 and 0.8446 and 0.3743 and 0.5615 and 0.3777 and 0.4892 and 0.3393 and 0.4166
- PAG (Male Wistar rats; Low_Dose group, Time 48 (2 days after treatment)): 0.6453 and 0.3298 and 0.3762 and 0.7958 and 0.1879
- PAG (Male Wistar rats; Low_Dose group, Time −16 (1 day before treatment)): 1.0275 and 1.1002 and 0.4610 and 1.3440 and 0.2541 and 0.7357 and 0.5260 and 0.6162 and 0.5218 and 0.4132
- PAG (Male Wistar rats; Low_Dose group, Time −40 (2 days before treatment)): 0.3418 and 0.5238 and 0.5336 and 0.7115 and 0.6105 and 0.5232
- PAG levels of both dose groups versus time matched controls (Male Wistar rats; rat, single oral dose 300 and 1000 mg/kg): comparable to their time matched controls
- potential to induce phospholipidosis [1]: low potential
- lymphocytes %, pos. (lymphocytes; [2]): 0%
- lymphocytes positive (with lamellar bodies) (lymphocytes; [2]): 0
- lymphocytes %, pos. (lymphocytes; [3]): 0%
- lymphocytes positive (with lamellar bodies) (lymphocytes; [3]): 0
- lymphocytes containing cytoplasmic lamellar bodies (finding in words) (lymphocytes; rats, single oral dose, necropsy 48 or 168 hours after application): did not show any lymphocytes with lamellar bodies; also recorded: not affected; also recorded: did not show any lymphocytes containing cytoplasmic lamellar bodies
